# Tests used:
# Format in all cases: in vivo, mouse
# [1] = system: retinal ganglion cells (RGCs); assay: TUNEL staining after ON injury; conditions: one day after ON injury; intravitreal 3-MA (33.3 mM); compared to non-treated mice
# Excerpt: Two mouse models of RGC death were utilized: optic nerve (ON) injury and N-methyl-D-aspartate (NMDA) retinal excitotoxicity. ON injury leads to RGC death as a result of primary damage to the axons, with its ensuing disruption of retrograde axonal transport (Libby et al., (2005) PLOS GENET 1:17-26) and is used as an RGC death model. In the ON injury model, mice were anesthetized and subjected to severe crush injury at 1-2 mm distance from the eyeball for 15 seconds using cross-action forceps taking special care not to interfere with the blood supply (Levkovitch-Verbin, (2004) EYE 18:1066-1074). […] Soon after injury, each group received an intravitreal injection (2 μl) with the respective compounds. In the NMDA retinal excitotoxicity model, NMDA (2 μl of a 0.1M stock; Sigma-Aldrich) was injected intravitreously in combination with ZVAD, Nec-1, or ZVAD plus Nec-1 and mice were separated into the aforementioned 4 groups. The dose of these compounds was selected based on previous studies (Karl et al., (2008) PROC NATL ACAD SCI USA 105:19508-19513; Knoferle et al., (2010) PROC NATL ACAD SCI USA 107:6064-6069; Nakazawa et al., (2006) J NEUROSCI 26:12633-12641; Rosenbaum et al., (2010) J NEUROSCI RES 88:1569-1576).
# Intravitreal injections were performed as follows. Briefly, the tip of a 33 gauge needle (Hamilton, Reno, Nev.) was carefully inserted through the sclera into the intravitreal space to reduce intraocular pressure. Then, the needle was extracted, loaded with compounds and tangentially reinserted through the sclera into the intravitreal space, inducing a self-sealing wound tunnel. After injection, the absence of choroidal bleeding was confirmed. At specified times after injury, mice were sacrificed with an overdose of sodium pentobarbital, and eyes were enucleated.
# [2] = system: retinal ganglion cells (RGCs); assay: IPL thickness and GCL with IPL thickness after ON injury (immunohistochemistry, SD-OCT); conditions: seven days after ON injury; intravitreal 3-MA (33.3 mM); effect less than ZVAD plus Nec-1
# Protocol: An anti-TNF-α neutralizing antibody (0.1 mg/ml) or a control antibody was injected into the vitreous of mice that underwent ON injury. One week following injection, the number of RGCs were measured. In addition, inner plexiform layer (IPL) thickness (a location of RGC axons) was also assessed. Specifically, eyes were enucleated and RGC loss was quantified from histological sections of mouse retina. Only transverse sections involving the optic disc were used for analysis and the fields corresponding to approximately 400 μm of both sides of retina extending from the ON head (2 points/section×3 sections per eye, n=6) were examined with an optical microscope (×40 objectives). IPL thickness was measured with OpenLab software (Open Lab, Florence, Italy) (2 points/section×3 sections per eye, n=6). The ratio of IPL thickness was calculated as a percentage of IPL thickness in the normal mouse eyes (n=6).
# Inner plexiform layer (IPL) thickness and ganglion cell layer (GCL) with IPL thickness (location of RGC cell bodies and axons) were measured using immunohistochemistry and a Spectral Domain Optical Coherence Tomography (SD-OCT) system (Bioptigen Inc., Durham, N.C.). […] The thickness of GCL+IPL was assessed at 500 μm, 400 μm, 300 μm distance from the ON head (nasally and temporally) as well as at 200 μm, 400 μm above and below the ON head.
# [3] = system: retinal ganglion cells (RGCs); assay: Brn3b immunohistochemistry (viable RGCs) after ON injury; conditions: seven days after ON injury; intravitreal 3-MA (33.3 mM); effect less than ZVAD plus Nec-1
# Excerpt: Two mouse models of RGC death were utilized: optic nerve (ON) injury and N-methyl-D-aspartate (NMDA) retinal excitotoxicity. ON injury leads to RGC death as a result of primary damage to the axons, with its ensuing disruption of retrograde axonal transport (Libby et al., (2005) PLOS GENET 1:17-26) and is used as an RGC death model. In the ON injury model, mice were anesthetized and subjected to severe crush injury at 1-2 mm distance from the eyeball for 15 seconds using cross-action forceps taking special care not to interfere with the blood supply (Levkovitch-Verbin, (2004) EYE 18:1066-1074). Injured mice were randomly divided into 4 groups for treatment: vehicle group (0.5% DMSO and 0.8% cyclodextrin in PBS, n=6), ZVAD group (300 n=6), Nec-1 group (4 mM, n=6), and ZVAD plus Nec-1 group (n=6). Soon after injury, each group received an intravitreal injection (2 μl) with the respective compounds. In the NMDA retinal excitotoxicity model, NMDA (2 μl of a 0.1M stock; Sigma-Aldrich) was injected intravitreously in combination with ZVAD, Nec-1, or ZVAD plus Nec-1 and mice were separated into the aforementioned 4 groups. […]
# ROS = assay: Protein carbonyl contents in retina after ON injury (ELISA); conditions: one day after ON injury; intravitreal 3-MA; compared with untreated control
# Protocol: It has been reported that RIP kinases control ROS generation during programmed necrosis (Cho et. al., (2009) CELL 137:1112-1123, Zhang et al., (2009) SCIENCE 325:332-336)). To investigate whether ROS play a roll in oxidative retinal damage after ON injury, protein level of carbonyl contents was analyzed using ELISA using the OxiSelect™ Protein Carbonyl ELISA Kit (Cell Biolabs, San Diego, Calif.).
# To investigate the role of autophagy in RGC death after ON injury, we examined the effect of 3-methyladenine (3-MA) on RGCs death after ON injury. 3-MA inhibits autophagosome formation (Seglen and Gordon, (1982) PROC NATL ACAD SCI USA 79:1889-1892)). One day after ON injury, TUNEL assay was performed. […] In addition, the number of Brn3b positive cells and IPL thickness were also analyzed. […] To investigate whether ROS play a role in oxidative retinal damage after ON injury, protein level of carbonyl contents was analyzed using an ELISA kit (Cell Biolabs, San Diego, Calif.) according to the manufacturer's instructions. One day after ON injury, carbonyl contents decreased in the 3-MA treated group compared with untreated control (FIG. 10F).
compound,measurement,setting,value
"Cn1cnc(N)c2ncnc1-2 [3-MA, 3-methyladenine]",number of TUNEL positive cells,[1],small but statistically significant decline
same,reduction of IPL thickness ratio,[2],significantly prevented the reduction
same,reduction of Brn3b positive cells,[3],significantly prevented the reduction
same,"carbonyl contents (protein level, ELISA)",ROS,decreased

# Source: patent publication US10617735B2, “Methods and compositions for preserving retinal ganglion cells” (Massachusetts Eye and Ear Infirmary, priority 2010, dated 2020)
